Results published in ChEMBL document CHEMBL1143678, “Self-assembling cannabinomimetics: supramolecular structures of N-alkyl amides” (J Nat Prod, 2007).

Target: Cannabinoid receptor 2 (Homo sapiens, UniProt P34972)
Assay: Displacement of [3H]CP-55940 from CB2 receptor expressed in HEK cells
Format: cell-based, HEK293

Chain of Cannabinoid receptor 2 (P34972 whole entry): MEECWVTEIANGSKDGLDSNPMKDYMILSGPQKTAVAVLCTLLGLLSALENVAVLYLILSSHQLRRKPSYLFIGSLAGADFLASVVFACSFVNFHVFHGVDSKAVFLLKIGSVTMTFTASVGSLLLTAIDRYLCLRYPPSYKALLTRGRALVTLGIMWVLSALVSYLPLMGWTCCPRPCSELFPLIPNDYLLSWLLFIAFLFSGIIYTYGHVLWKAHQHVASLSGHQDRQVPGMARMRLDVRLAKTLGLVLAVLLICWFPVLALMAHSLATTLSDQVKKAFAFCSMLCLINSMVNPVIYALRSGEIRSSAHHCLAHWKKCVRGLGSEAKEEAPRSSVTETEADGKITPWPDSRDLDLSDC

Ki: 52 nM
Compound: CCCCCCC/C=C/C=C/C(=O)NCC(C)C
